Assays:
Botrytis cinerea = assay: Example H: in vivo preventive test on Botrytis cinerea (beans); conditions: table H, 100 ppm, lesion size 2 days after inoculation
Experimental: Example H: In Vivo Preventive Test on Botrytis cinerea (Beans)
To produce a suitable preparation of active compound, 1 part by weight of active compound is mixed with the stated amounts of solvent and emulsifier, and the concentrate is diluted with water to the desired concentration.
To test for preventive activity, young plants are sprayed with the preparation of active compound. After the spray coating has dried on, 2 small pieces of agar covered with growth of Botrytis cinerea are placed on each leaf. The inoculated plants are placed in a darkened chamber at 20° C. and a relative atmospheric humidity of 100%.
2 days after the inoculation, the size of the lesions on the leaves is evaluated. 0% means an efficacy which corresponds to that of the untreated control, while an efficacy of 100% means that no disease is observed.

Sphaerotheca fuliginea = assay: Example A: in vivo preventive test on Sphaerotheca fuliginea (cucumber)
Experimental: Example A: In Vivo Preventive Test on Sphaerotheca fuliginea (Cucumber) [table] To produce a suitable preparation of active compound, 1 part by weight of active compound is mixed with the stated amounts of solvent and emulsifier, and the concentrate is diluted with water to the desired concentration. To test for preventive activity, young plants are sprayed with the preparation of active compound at the stated rate of application. One day after this treatment, the plants are inoculated with an aqueous spore suspension of Sphaerotheca fuliginea. Then the plants are placed in a greenhouse at approximately 23° C. and a relative atmospheric humidity of approximately 70%.

[1] = table A1, 100 ppm of active ingredient, evaluated 7 days after inoculation
[2] = table A2, dose 100 ppm, comparison with WO-2010/086311 compounds

SMILES	Efficacy (Botrytis cinerea)	Efficacy (Sphaerotheca fuliginea; [1])	Efficacy (Sphaerotheca fuliginea; [2])
CC(C1CCCc2ccccc21)N(C(=O)c1c(C(F)F)nn(C)c1F)C1CC1 (stereo not drawn) [I.23]	99%	94%	94%
Cn1nc(C(F)F)c(C(=O)N(CC2CC(C)(C)Oc3ccccc32)C2CC2)c1F (stereo not drawn) [I.33]	96%	94%	94%

Source: US9686985B2, “Fungicide N-cycloalkyl-N-bicyclicmethylene-carboxamide derivatives” (BAYER INTELLECTUAL PROPERTY GMBH, priority 2012, dated 2017)
